Assays:
[1] = Compound was tested for inhibition against Creatine kinase (CK)
[2] = Compound was tested for inhibition against Creatine kinase(CK)

Compound | Ki [1] [mM] | Ki [2] [mM]
CN(CC(=O)O)C(=N)CP(=O)(O)O [Phosphocreatine analogue] | 1.4 | –
N=C(CP(=O)(O)O)NCC(=O)O [Phosphocreatine analogue] | – | 5.7
N=C(CP(=O)(O)O)NCCC(=O)O [Phosphocreatine analogue] | 37 | –
